For test [1], the system named is C. elegans. The test can be described thus: WorMotel-based locomotion tracking (single dosing). Type of test: in vivo, Caenorhabditis elegans. The following applies: for increase in maximal baseline activity compared to the untreated control: baseline = prior to blue light stimulus; for increase in total number of healthy days (locomotion-based health span) versus untreated control: days with activity >15% of mean maximal activity of untreated control. How it is done: (§1) During the ‘single dosing assay’, we used the WorMotel platform for long-term recurrent imaging of C. elegans^3. This semi-automated platform allows for unbiased longitudinal monitoring of C. elegans aging phenotypes, including daily measurements of survival as well as locomotion quantification. From the onset of adulthood, animals were confined to individual wells in screening plates (i.e. microfabricated WorMotel chips prepared as described in^3) that were seeded with E. coli HT115(DE3) as a food source and supplemented with the corresponding compounds at different doses (Table 1). Four replicate screening plates were assayed, with all four tested conditions present on each screening plate (in randomized locations). Animals were kept on the same screening plates for the duration of the experiment (i.e. 30 days). The time of death is determined as the final time of nonzero movement. Note that this imaging platform is incompatible with repeated dosing. We used the statistical software R to construct Kaplan-Meier survival curves, calculate mean and median life span and carry out all related statistical analyses. To compare survival between two conditions, log-rank tests were used (i.e. survdiff function of the survival package, adjusted for multiple comparisons via the Benjamini-Hochberg method). The corresponding p-values are referred to as plog-rank.
(§2) Locomotion of C. elegans is characterized by sinusoidal movements (i.e. body bends), and progressively diminishes during adult life. As in other animals, maintenance of coordinated movement is considered a prime health span parameter^5.
Each imaging period, the mean and maximum locomotion activity before and after a blue light stimulus are quantified (as described in^3). The resulting activity values are termed ‘baseline locomotion’ and ‘stimulated locomotion’, respectively. […] An increase in ‘healthy days’ is indicative for an increase in locomotion-based healthspan. Results were analyzed using one-way and two-way ANOVAs, with the Holm-Sidak correction for multiple comparisons in GraphPad Prism software. All corresponding p-values are referred to as pANOVA.

For test [2], the system named is wild-type C. elegans N2 strain. The test can be described thus: Life span assay, single dosing (WorMotel platform). Type of test: in vivo, Caenorhabditis elegans. Particulars: for Decrease MLS versus combo Met25 + Gal100 / Increase MLS versus untreated control / Max LS / Median LS / survival compared to the untreated control: single dosing; for MLS ± SEM (mean life span): single dosing at first day of adulthood, pooled assays; for Max LS: day on which 10% of the animals are still alive; for Median LS: day on which 50% of the animals are still alive; for survival compared to the untreated control: log-rank test. As to the method: (§3) The wild-type C. elegans N2 strain was obtained from the Caenorhabditis Genetic Center (University of Minnesota, USA) and was cultivated at 20° C. on standard nematode growth medium (NGM) seeded with a thin layer of Escherichia coli OP50, unless stated otherwise. Life span of C. elegans was measured analogous to methods described earlier^1,2. The first day of adulthood was always recorded as day 0. FUdR (5-fluoro-2′-deoxyuridine, Sigma-Aldrich) was used in all life span assays to avoid progeny production. Multiple independent assays were carried out. A minimum of 100 animals per condition per assay was used, as to ensure sufficient statistical power.
as §1

Test [3] concerns C. elegans. In words: Camera-based locomotion tracking (repeated dosing). Particulars: Table 2, day 7 post-reproductive adults; for Cell occupancy ± SEM: squares of 1 mm^2. Type of test: in vivo, Caenorhabditis elegans.
Description: as §2
To quantify locomotion effects in more detail, we utilized an automated tracking system for C. elegans that is compatible with standard petri plates. The multi-camera tracking system allows for objective quantification of mean locomotion speed, maximal locomotion speed and multiple behavioral parameters via path-based image analysis. The system was utilized similar to Peymen et al^8. Two distinct assays were performed. In a first assay (Table 2), the locomotion effects of Gal, Met and a combination of both compounds was assayed. This allowed to test for synergetic effects between Gal and Met on multiple locomotion parameters. In a second assay (Table 3), we characterized the locomotion effects of the combination of Met with different acetylcholinesterase inhibitors (i.e. Gal, Don and Riv), as well as the combination of Met with the acetylcholinesterase inhibitor-like compound Mem. As such, we were able to test whether there is a class effect of acetylcholinesterase inhibitors as a whole (in combination with Met). Synchronized wild-type animals were grown in the presence of the corresponding compounds at different doses from the L4 stage (i.e. day 0) and FUdR, until the start of the measurement. Animals were re-dosed thrice (at day 2, 4 and 7) via transfer to fresh compound-treated NGM plates. Prior to imaging, for each replicate 20 well-fed living animals were manually transferred from their culture plate to an unseeded NGM plate, and after 5 min transferred to another unseeded NGM plate used for imaging. Image acquisition took place with StreamPix 6 multicamera software (GigE PRO GP11004M camera with KOWA LM16JC10M lens) for 11 min at 2 fps and a constant exposure, after which worms were tracked using custom particle-tracking MATLAB code. For each mobile animal (i.e. an animal that moved for at least 2 min during the imaging period), both mean and maximal locomotion speeds were extracted, as well as the behavioral metrics ‘cell occupancy’ and ‘fraction running’. The latter represents the fraction of time that an animal was detected to be running (as opposed to pausing or turning). Cell occupancy is a metric quantifying the spatial search efficiency of a worm. Cell occupancy values represent the number of unique cells (squares of 1 mm^2) that the worm visited during the imaging period. Both behavioral parameters decline during aging. Experiments were performed in triplicate (or quadruplicate), with 20 worms per condition per replicate. The results were analyzed using multiple t testing, with the Holm-Sidak correction for multiple comparisons, in GraphPad Prism software. The corresponding p-values are referred to as p.

In test [4] the test system is C. elegans sarcomere myofilaments. In words: Quantifying muscle morphology and deterioration (myo-3p::MYO-3::GFP, strain RW1596). The following applies: late adulthood (day 14). Type of test: in vivo, Caenorhabditis elegans. From the text:
Sarcomeres are fundamental muscle units, responsible for muscle contraction. C. elegans' sarcomeres consist of alternated filaments containing myosin and actin, similar to sarcomeres of vertebrates. While sarcomere myofilaments in the body wall of young animals are organized in parallel symmetric rows, sarcomere myofilaments in older animals become progressively disorganized with a more irregular shape and orientation.
By using a transgenic reporter strain that has a fusion of myosin heavy chain with fluorescent GFP (strain RW1596; myo-3p::MYO-3::GFP), muscle structure of C. elegans can be visualized in vivo. Combined with confocal microscopy and bioinformatic analysis this offers not only qualitative, but also quantitative readouts for the assessment of the organizational level of muscle fibers. An analytical method to quantify muscle deterioration has been optimized at the laboratory of Prof. Bart Braeckman (UGent; unpublished data). We used this technique to verify whether animals treated with Gal and/or Met, display a muscle phenotype resembling that of younger untreated individuals. […]
For each animal, the two morphological metrics ‘aspect ratio’ and ‘smoothness’ were extracted. […] The aspect ratio is calculated as the ratio of the length of the major axis (=length) and the length of the minor axis (=width) for individual myofilaments within a sarcomere. […]

The subject of test [5] is wild-type C. elegans N2 strain. The test can be described thus: Life span assay, repeated dosing (manual scoring on NGM agar plates). It counts as in vivo, Caenorhabditis elegans. Particulars: for Decrease MLS versus combo Met25 + Gal100 / Increase MLS versus untreated control / Max LS / Median LS: repeated dosing; for MLS ± SEM (mean life span): repeated dosing from first day of adulthood; for Max LS: day on which 10% of the animals are still alive; for Median LS: day on which 50% of the animals are still alive. How it is done:
as §3
During the ‘repeated dosing assay’, we followed the standard method in the field (i.e. manual inspection of survival of age-synchronized populations on bacteria-coated agar plates^2), which is robust and technically relatively simple. In short, at the onset of adulthood, animals were transferred to standard NGM assay plates (untreated control) or NGM assay plates supplemented with the corresponding compounds at different doses (Table 1). Animals were transferred to fresh standard NGM assay plates or fresh NGM assay plates supplemented with the corresponding compounds at different doses thrice in the first week and weekly thereafter (for a total duration of 33 days). This dosing schedule is in accordance with standardized protocols from the Caenorhabditis Intervention Testing Program (CITP)^4. Met was added to the NGM prior to autoclaving, whereas Gal was pipetted onto the seeded assay plates (at least two hours prior to transferring animals on to the assay plates). A same volume of liquid was added to all plates, also to plates of the untreated control and Met condition (i.e. mock treatment). Animals that crawled off the assay plates or died of internal hatching were censored. The number of live and dead worms was scored every one to two days.

Test [6] has as its system glutathione S-transferase 4 (gst-4) gene transcription. In words: In vivo gene activity assay (gst-4p::GFP reporter). On the set-up: species or system Caenorhabditis elegans. Particulars: GFP fluorescence; treated from L1 until late L4 stage. The source says:
The transparent body of C. elegans allows for straightforward and non-invasive measurements of in vivo gene transcription via transgenic fluorescent reporters^9. We measured transcription of the gst-4p::GFP C. elegans GFP reporter to gain insight into the intracellular signaling networks that are affected by Met and/or Gal. Additionally, we tested whether Met and Gal have a synergistic or potentiating effect on activation of gst-4 gene transcription.
The gst-4 gene encodes for the cytoprotective and drug-metabolizing enzyme glutathione S-transferase 4 (GST-4). Gst-4 is a direct target of SKN-1, an ortholog of the mammalian Nuclear Factor E2-Related Factor (Nrf2) protein family that is a key transcription factor involved in the protection against oxidative and xenobiotic stresses. […] In C. elegans aging research, transcriptional activation of gst-4 is often used as a read-out for SKN-1 activity. […] GFP fluorescence was quantified using an automated method, as described earlier^11. In short: JMET69 animals with genotype ls[gst-4(1491 bp)::gfp;unc-119(+)];ls[unc-54^p::mCherry;unc-119(+)] were grown in the presence and absence of drugs (i.e. Met and/or Gal) on NGM plates seeded with E. coli OP50, from the L1 until the late L4 stage, before transfer to a 96 well plate for fluorescence quantification. […]

Structures are written as SMILES. Structures can show the parent of a compound that is named as a salt. Marks after values point to notes of the source that are not given here.

As for `COc1ccc2c3c1O[C@H]1C[C@@H](O)C=C[C@@]31CCN(C)C2` [Gal 100, Galantamine hydrobromide], in the test with C. elegans [1], the “increase in maximal baseline activity compared to the untreated control” value came out at 15% and the “increase in total number of healthy days (locomotion-based health span) versus untreated control” value is recorded as “+20%”. In test [2], the “Decrease MLS versus combo Met25 + Gal100” value is recorded as −3.9% *, the “Increase MLS versus untreated control” value is “+12.8% ***”, the “MLS ± SEM (mean life span)” value was 19.63 ± 0.44 days and the “Max LS” value is given as 27 days. Moreover, in test [2], the “Median LS” value was 20 days and the “survival compared to the untreated control” value is reported as “significantly increased survival”. In the test with C. elegans [3], the “Fraction running ± SEM” value is 48 ± 2 ^NS %, the “Maximal speed ± SEM” value was 270 ± 17 ^NS μm/s, the “Mean speed ± SEM” value is on record as 48 ± 4 ^NS μm/s and the “Cell occupancy ± SEM” value was 11 ± 1 ^NS unique areas visited. In addition, the “sarcomere aspect ratio versus untreated control (in words)” value in test [4] is on record as “no significant increases in aspect ratio”. In test [5], the “Decrease MLS versus combo Met25 + Gal100” value is listed as −12.5% ****, the “Increase MLS versus untreated control” value is “+6.8% *”, the “MLS ± SEM (mean life span)” value worked out at 16.87 ± 0.32 days and the “Max LS” value is given as 22 days. In test [5], the “Median LS” value was 17 days. Also, in test [6], the “gst-4 transcription level change compared to the untreated control” value is on record as “+9%”.
Consider `CN(C)C(=N)NC(=N)N.Cl` [Met 25, 1,1-Dimethylbiguanide hydrochloride], for which, in the test with C. elegans [1], the “increase in maximal baseline activity compared to the untreated control” value turned out to be 35% and the “increase in total number of healthy days (locomotion-based health span) versus untreated control” value is reported as “+14%”. In addition, in test [2], the “Decrease MLS versus combo Met25 + Gal100” value is recorded as −6.7% *, the “Increase MLS versus untreated control” value is reported as “+9.6% **”, the “MLS ± SEM (mean life span)” value stood at 19.08 ± 0.58 days and the “Max LS” value worked out at 28 days. For the same compound, in test [2], the “Median LS” value is given as 20 days and the “survival compared to the untreated control” value was “significantly increased survival”. Further, in the test on C. elegans [3], the “Fraction running ± SEM” value stood at 67 ± 2 %, the “Maximal speed ± SEM” value is listed as 262 ± 8 ^NS μm/s, the “Mean speed ± SEM” value worked out at 102 ± 5 μm/s and the “Cell occupancy ± SEM” value stood at 28 ± 3 unique areas visited. For the same compound, the “sarcomere aspect ratio versus untreated control (in words)” value in test [4] is “no significant increases in aspect ratio”. In addition, in test [5], the “Decrease MLS versus combo Met25 + Gal100” value is on record as −8.3%, the “Increase MLS versus untreated control” value is “+11.9% ****”, the “MLS ± SEM (mean life span)” value is listed as 17.68 ± 0.50 days and the “Max LS” value was 23 days. Besides, in test [5], the “Median LS” value is listed as 18 days. Besides, the “gst-4 transcription level change compared to the untreated control” value in test [6] is given as “+26%”.
